Experiments:
[1] = target: T1, cGMP-inhibited 3',5'-cyclic phosphodiesterase 3A (Homo sapiens, UniProt Q14432); experiment: In vitro inhibition of human Phosphodiesterase 3A3 expressed in baculovirus infected Sf9 cells
Phosphodiesterase 1 [2] = target: T2, Phosphodiesterase 1 (Homo sapiens, UniProt P54750+Q01064+Q14123); experiment: In vitro inhibition of human Phosphodiesterase 1 partially purified from THP-1 cells
[3] = target: T3, cGMP-specific 3',5'-cyclic phosphodiesterase (Homo sapiens, UniProt O76074); experiment: In vitro inhibition of human Phosphodiesterase 5
[4] = target: T4, High affinity 3',5'-cyclic-AMP phosphodiesterase 7A (Homo sapiens, UniProt Q13946); experiment: In vitro inhibition of human Phosphodiesterase 7A1 expressed in baculovirus infected Sf9 cells
T4 sequence (Q13946 whole entry): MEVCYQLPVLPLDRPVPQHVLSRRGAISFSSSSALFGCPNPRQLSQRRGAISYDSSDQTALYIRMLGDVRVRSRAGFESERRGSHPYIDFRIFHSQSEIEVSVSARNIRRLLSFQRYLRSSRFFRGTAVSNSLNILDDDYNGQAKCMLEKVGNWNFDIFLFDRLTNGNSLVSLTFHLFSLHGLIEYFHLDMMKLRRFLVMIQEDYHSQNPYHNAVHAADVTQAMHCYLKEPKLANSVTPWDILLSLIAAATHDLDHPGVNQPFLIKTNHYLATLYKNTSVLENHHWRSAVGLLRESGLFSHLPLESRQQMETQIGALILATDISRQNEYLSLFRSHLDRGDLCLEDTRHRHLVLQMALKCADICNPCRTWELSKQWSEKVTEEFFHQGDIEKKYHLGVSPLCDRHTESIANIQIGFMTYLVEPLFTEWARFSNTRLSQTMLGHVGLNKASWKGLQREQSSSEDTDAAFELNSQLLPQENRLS

[5] = target: T5, 3',5'-cyclic-AMP phosphodiesterase 4D (Homo sapiens, UniProt Q08499); experiment: In vitro inhibition of human Phosphodiesterase 4D3 expressed in baculovirus infected Sf9 cells
T5 sequence (Q08499 whole entry): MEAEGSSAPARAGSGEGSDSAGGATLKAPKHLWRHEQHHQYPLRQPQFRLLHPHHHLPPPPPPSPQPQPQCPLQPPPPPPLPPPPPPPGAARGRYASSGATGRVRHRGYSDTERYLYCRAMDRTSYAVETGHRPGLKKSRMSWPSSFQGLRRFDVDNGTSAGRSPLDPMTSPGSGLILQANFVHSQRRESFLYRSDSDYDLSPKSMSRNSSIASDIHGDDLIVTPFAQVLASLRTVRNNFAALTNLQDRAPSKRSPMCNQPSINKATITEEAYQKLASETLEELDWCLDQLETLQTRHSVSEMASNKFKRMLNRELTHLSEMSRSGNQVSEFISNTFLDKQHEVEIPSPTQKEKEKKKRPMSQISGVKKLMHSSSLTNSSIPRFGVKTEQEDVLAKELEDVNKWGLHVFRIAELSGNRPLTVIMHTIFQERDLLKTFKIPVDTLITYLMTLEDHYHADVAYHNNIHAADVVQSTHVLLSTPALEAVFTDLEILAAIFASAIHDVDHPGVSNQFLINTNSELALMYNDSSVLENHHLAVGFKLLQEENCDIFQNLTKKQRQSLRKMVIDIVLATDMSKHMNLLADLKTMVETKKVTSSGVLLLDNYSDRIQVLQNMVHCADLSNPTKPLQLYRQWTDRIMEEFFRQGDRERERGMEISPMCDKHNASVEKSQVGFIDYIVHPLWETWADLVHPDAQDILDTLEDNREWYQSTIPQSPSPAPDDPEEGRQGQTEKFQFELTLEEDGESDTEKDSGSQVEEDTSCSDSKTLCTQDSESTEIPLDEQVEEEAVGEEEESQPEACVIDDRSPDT

[6] = target: T1, cGMP-inhibited 3',5'-cyclic phosphodiesterase 3A; experiment: Inhibition of human Phosphodiesterase 3A3 expressed in baculovirus infected Sf9 cells
[7] = target: T3, cGMP-specific 3',5'-cyclic phosphodiesterase; experiment: Inhibition of human Phosphodiesterase 5
Phosphodiesterase 1 [8] = target: T2, Phosphodiesterase 1; experiment: Inhibition of human Phosphodiesterase 1 partially purified from THP-1 cells; format: cell-free
[9] = target: T5, 3',5'-cyclic-AMP phosphodiesterase 4D; experiment: Inhibition of human Phosphodiesterase 4D3 expressed in baculovirus infected Sf9 cells
[10] = target: T4, High affinity 3',5'-cyclic-AMP phosphodiesterase 7A; experiment: Inhibition of human Phosphodiesterase 7A1 expressed in baculovirus infected Sf9 cells

T1 sequence (Q14432 whole entry): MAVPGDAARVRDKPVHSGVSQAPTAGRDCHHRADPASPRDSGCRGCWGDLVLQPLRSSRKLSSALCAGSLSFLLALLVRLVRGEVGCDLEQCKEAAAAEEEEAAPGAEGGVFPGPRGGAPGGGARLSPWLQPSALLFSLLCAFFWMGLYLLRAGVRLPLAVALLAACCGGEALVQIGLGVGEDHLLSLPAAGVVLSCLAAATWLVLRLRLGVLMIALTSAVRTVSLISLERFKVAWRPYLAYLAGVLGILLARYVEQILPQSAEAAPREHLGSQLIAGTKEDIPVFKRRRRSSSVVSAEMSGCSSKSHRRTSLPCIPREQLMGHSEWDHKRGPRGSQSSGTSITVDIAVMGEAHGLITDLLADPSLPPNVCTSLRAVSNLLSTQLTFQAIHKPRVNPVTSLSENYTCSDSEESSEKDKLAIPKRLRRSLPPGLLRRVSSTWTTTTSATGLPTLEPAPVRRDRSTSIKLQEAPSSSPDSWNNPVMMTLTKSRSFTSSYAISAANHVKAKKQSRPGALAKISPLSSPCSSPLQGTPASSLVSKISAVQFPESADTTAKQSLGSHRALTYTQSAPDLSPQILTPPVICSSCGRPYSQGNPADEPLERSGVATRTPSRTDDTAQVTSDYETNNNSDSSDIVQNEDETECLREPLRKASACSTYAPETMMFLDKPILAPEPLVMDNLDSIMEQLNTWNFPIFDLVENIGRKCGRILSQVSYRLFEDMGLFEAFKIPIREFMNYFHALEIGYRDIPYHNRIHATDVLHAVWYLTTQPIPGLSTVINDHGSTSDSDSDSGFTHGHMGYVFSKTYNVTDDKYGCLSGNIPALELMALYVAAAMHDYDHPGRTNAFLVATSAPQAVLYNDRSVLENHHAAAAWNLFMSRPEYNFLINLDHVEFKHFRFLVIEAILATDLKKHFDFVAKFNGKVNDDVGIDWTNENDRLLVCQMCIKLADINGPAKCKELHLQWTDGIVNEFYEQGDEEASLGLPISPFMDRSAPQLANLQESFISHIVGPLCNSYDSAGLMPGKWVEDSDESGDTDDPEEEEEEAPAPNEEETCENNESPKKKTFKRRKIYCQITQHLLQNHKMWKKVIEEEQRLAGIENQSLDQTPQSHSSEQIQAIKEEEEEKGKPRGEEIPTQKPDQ

Compound | IC50 [1] | IC50 (Phosphodiesterase 1 [2]) | IC50 [3] | IC50 [4] | IC50 [5] | IC50 [10] | also measured
O=C1Nc2ccc(Cl)cc2C2(CCCCC2)N1 |  |  |  |  |  | 4800 nM | 
Cc1cccc2c1NC(=O)NC21CCCCC1 |  |  |  |  |  | 790 nM | 
CCC1(CC)NC(=O)Nc2c(Br)cccc21 |  |  |  |  |  | 6540 nM | 
O=C1Nc2cc(Cl)c(Cl)cc2C2(CCCCC2)N1 |  |  |  |  |  | 3700 nM | 
O=C1Nc2c(I)cccc2C2(CCCCC2)N1 |  |  |  |  |  | 6850 nM | 
COc1ccc2c(c1)C1(CCCCC1)NC(=O)N2 |  |  |  |  |  | 3200 nM | 
O=C1Nc2c(Br)cccc2C2(CCC2)N1 |  |  |  |  |  | 1400 nM | 
O=C1Nc2ccccc2C2(CCCCC2)N1 |  |  |  |  |  | 6600 nM | 
O=C1Nc2cc(Cl)ccc2C2(CCCCC2)N1 |  |  |  |  |  | 2700 nM | 
O=C1Nc2c(C(F)(F)F)cccc2C2(CCCCC2)N1 |  |  |  |  |  | 2960 nM | 
O=C1Nc2c(Br)cccc2C2(CCCCC2)N1 |  |  |  |  |  | 60 nM | 
CC1CCC2(CC1)NC(=O)Nc1c(Br)cccc12 (configuration not stated) |  |  |  |  |  | 210 nM | 
CCCC1(CCC)NC(=O)Nc2c(Br)cccc21 |  |  |  |  |  | 2660 nM | 
O=C1Nc2cccc(Cl)c2C2(CCCCC2)N1 |  |  |  |  |  | 840 nM | 
O=C1Nc2ccc(Cl)c(Cl)c2C2(CCCCC2)N1 |  |  |  |  |  | 600 nM | 
O=C1Nc2c(F)cccc2C2(CCCCC2)N1 |  |  |  |  |  | 390 nM | 
COc1ccc2c(c1)NC(=O)NC21CCCCC1 |  |  |  |  |  | 9500 nM | 
O=C1Nc2c(Br)cccc2C2(CCCCCC2)N1 |  |  |  |  |  | 60 nM | 

The next lines start with results.

IC50 [1] | IC50 (Phosphodiesterase 1 [2]) | IC50 [3] | IC50 [4] | IC50 [5] | IC50 [10] | Compound | also measured
78.1 µM | 5.16 µM | > 84.9 µM | 10 nM | 1460 nM |  | CN(C)CCCNC(=O)c1cccc(-c2cc(Cl)c3c(c2)C2(CCCCC2)NC(=O)N3)c1 | 
 |  |  |  |  | 10 nM | O=C1Nc2c(Cl)cc(-c3ccccc3)cc2C2(CCCCC2)N1 | IC50 [6]: > 101 µM; IC50 [7]: 69.8 µM; IC50 (Phosphodiesterase 1 [8]): 3.26 µM; IC50 [9]: 1420 nM
29.3 µM | 7.01 µM |  | 10 nM | 1700 nM |  | CN1CCN(C(=O)c2ccc(-c3cc(Cl)c4c(c3)C3(CCCCC3)NC(=O)N4)cc2)CC1 | IC50 [7]: 29.3 µM
 |  |  |  |  | 980 nM | O=C1Nc2ccc(-c3ccccc3)cc2C2(CCCCC2)N1 | 
 |  |  |  |  | 120 nM | O=C1Nc2c(Cl)cc(Cl)cc2C2(CCCCC2)N1 | 
14.8 µM | 2.86 µM | 19.3 µM | 50 nM | 1550 nM |  | O=C1Nc2c(Cl)cc(-c3cccnc3)cc2C2(CCCCC2)N1 | 
 |  |  |  |  | 160 nM | COc1cc(Cl)c2c(c1)C1(CCCCC1)NC(=O)N2 | 
11.2 µM | 3.01 µM | 9.47 µM | 30 nM | 1010 nM |  | O=C1Nc2c(Cl)cc(-c3ccncc3)cc2C2(CCCCC2)N1 | 
0.28 µM | 1.28 µM |  | 20 nM |  |  | NC(=O)c1ccc(-c2cc(Cl)c3c(c2)C2(CCCCC2)NC(=O)N3)cc1 | IC50 [7]: 11.6 µM; IC50 [9]: 690 nM
21.3 µM | 0.89 µM | 8.5 µM | 10 nM | 470 nM |  | O=C1Nc2c(Cl)cc(-c3ccc(C(=O)O)cc3)cc2C2(CCCCC2)N1 | 
31.6 µM | 6.39 µM | 52.4 µM |  | 1310 nM | 40 nM | CN1CCN(C(=O)c2cccc(-c3cc(Cl)c4c(c3)C3(CCCCC3)NC(=O)N4)c2)CC1 | 
> 92 µM | 20.1 µM | > 101 µM | 1520 nM | 15700 nM |  | CN1CCN(C(=O)c2ccccc2-c2cc(Cl)c3c(c2)C2(CCCCC2)NC(=O)N3)CC1 | 
 |  |  |  |  | 160 nM | Cc1cc(Cl)c2c(c1)C1(CCCCC1)NC(=O)N2 | 
45.1 µM | 8.3 µM | 68.4 µM | 30 nM | 1800 nM |  | O=C1Nc2c(Cl)cc(-c3ccccn3)cc2C2(CCCCC2)N1 | 
> 79.9 µM | 11.6 µM | > 101 µM | 20 nM | 1590 nM |  | CN(C)CCNC(=O)c1cccc(-c2cc(Cl)c3c(c2)C2(CCCCC2)NC(=O)N3)c1 | 
42.2 µM | 6.29 µM | > 67.3 µM | 20 nM | 1630 nM |  | CN(C)CCNC(=O)c1ccc(-c2cc(Cl)c3c(c2)C2(CCCCC2)NC(=O)N3)cc1 | 
16.7 µM | 0.71 µM | 12.6 µM | 20 nM | 740 nM |  | O=C1Nc2c(Cl)cc(-c3cccc(C(=O)O)c3)cc2C2(CCCCC2)N1 | 
44.5 µM | 6.47 µM | > 50.7 µM | 20 nM | 1500 nM |  | CN(C)CCCNC(=O)c1ccc(-c2cc(Cl)c3c(c2)C2(CCCCC2)NC(=O)N3)cc1 | 
